# From patent publication US20250043349A1, “DEORPHANIZING ODORS USING SINGLE CELL SEQUENCING” (PRESIDENT AND FELLOWS OF HARVARD COLLEGE, priority 2021, published 2025)
# Tests used:
# Olfr923 = assay: Act-Seq activation score in OSNs expressing Olfr923; assay type: in vivo, mouse; conditions: acetophenone vs 2-HA
# Procedure: Act-Seq (Wu et al., 2017) was performed following odor exposure to quantify odor-evoked responses in each OSN subtype (defined by their expressed OR) across the entire OR repertoire. Mice were habituated to a reversed light cycle for at least for 1 week before odor exposure, transferred to a new disposable cage with regular bedding/food and kept overnight in a satellite animal facility. On the experimental day, each mouse was first transferred to a new empty disposable cage during the dark cycle and habituated for 20 minutes. Empty cages were used to avoid any activation by odorants present within the environments in which the mice were housed. Odors were added to a piece of filter paper (100 μL of odorant) in a 35 mm petri dish and a cotton ball (200 μL of odorant) and placed in each cage. […]
# The remaining 169 activation genes that were also considered as HVGs often had weak loadings across multiple GEPs. […] To summarize the effects of odor activation across this set of activation genes, the TPT-expression of these activation genes were z-scored (using means and standard deviations for these genes in the control, acetophenone, and octanal datasets, identified by subsampling equal numbers of cells across all ORs expressed in at least 6 cells across 100 restarts). […] PCA was performed on the differences in z-scored activation gene expression between control and odor conditions. […]
# [1] = tested on: OSN subtypes (odorant receptors, ORs); assay: Act-Seq: scSeq of olfactory epithelium after two-hour odor exposure (IEG expression, activated ORs, activation score); assay type: in vivo, mouse
# Procedure: Act-Seq (Wu et al., 2017) was performed following odor exposure to quantify odor-evoked responses in each OSN subtype (defined by their expressed OR) across the entire OR repertoire. Mice were habituated to a reversed light cycle for at least for 1 week before odor exposure, transferred to a new disposable cage with regular bedding/food and kept overnight in a satellite animal facility. On the experimental day, each mouse was first transferred to a new empty disposable cage during the dark cycle and habituated for 20 minutes. Empty cages were used to avoid any activation by odorants present within the environments in which the mice were housed. Odors were added to a piece of filter paper (100 μL of odorant) in a 35 mm petri dish and a cotton ball (200 μL of odorant) and placed in each cage. After 2 hours, mice were euthanized, and dissociation was performed as described below. Odors used in this study were as follows. Dipropylene glycol (DPG, control solvent), and 10% of acetophenone, octanal, 2-hydroxy acetophenone, 4-methyl acetophenone, and methyl salicylate. As a control, mice were exposed to DPG alone for 30 min. This control condition was used to account for any drift in transcriptomes during the overnight housing and habituation periods prior to odor exposure and designed to capture the transcriptome in the state it would have been in the odor-exposed animals prior to odor exposure. […] Act-Seq was also performed using lower concentrations of acetophenone (1.0, 0.1, 0.01%) and 2-hydroxy acetophenone (0.1%, 0.01%). All odor dilutions were made with DPG, and all odors and DPG were obtained from Sigma. To assess the persistence of any transcriptional changes observed as a result of odor exposure, a cohort of mice was exposed to acetophenone or DPG for 2 hours, transferred to new clean regular home cages, and subjected to scSeq after an additional 22 hours.
# The main olfactory epithelium was dissected in Earle's Balanced Salt Solution (EBSS, pre-treated with carbogen for at least 5 minutes before each use, Worthington), then transferred to a round-bottomed glass dish containing 750 μL of papain solution (one vial of Papain (Worthington) dissolved in 5 mL of EBSS and then equilibrated 10 minutes at 37° C.) and 100 μL of DNase solution (one vial of DNase-I (Worthington) dissolved in 500 μL of EBSS). Bone was removed from the epithelium under a dissecting microscope and the resulting epithelial tissue was placed in a 5 mL tube (Becton Dickinson) with an additional 1.75 mL of Papain solution and 200 μL of DNase-I solution and rocked gently for-60 minutes at 37° C. The tissue was then gently triturated with a 5 mL pipette 10-15 times, passed through a 40 μm cell strainer (Becton Dickinson), and washed with 1 mL of Hibernate-A medium containing 10% Fetal Bovine Serum (FBS. GIBCO). Filtered cells were transferred to a new 5 mL tube and centrifuged 5 minutes at 300×g. The supernatant was decanted, the cells were washed once with 4 mL Hibernate-A containing 10% FBS and resuspended in 1 mL Hibernate-A containing 0.2% FBS. Importantly, each of the solutions above contained transcriptional inhibitors (5 μg/mL of Actinomycin D, 10 μg/mL of Anisomycin and 10 μM of Triptolide, all obtained from Sigma) for all experiments, especially the Act-Seq experiments, except where noted.
# OSN subtypes that were responsive to odorants were identified via a two-step process. First, individual OSNs (as defined by the expressed OR) were determined as activated based on their mean z-scored immediate early genes (IEG) expression. A set of 10 IEGs were used (Btg2, Egr1, Fos, Fosb, Gm13889, Junb, Nr4a1, Nr4a2, Pcdh10, and Srxn1). […] The set of 10 IEGs was used since even though all of the IEGs were specific to acute activation by odors, they were still only detected in a minority of cells due to the sparse nature of scSeq. […]
# [2] = acetophenone concentration series 0.01-10%
compound,measurement,setting,value
CC(=O)c1ccccc1 [acetophenone],activation scores for OSNs expressing Olfr923,Olfr923,higher for acetophenone than 2-HA
same,"percent of cells activated per OR on average, 5 partially activated ORs identified only by phospho-S6","[1]; Act-Seq, ORs identified as acetophenone receptors",43.8%
same,"overlap between ORs activated by ACE and OCT, odds ratio","[1]; Fisher's exact test, overlap at chance levels",1.42
same,activation scores of acetophenone-responsive OSNs with increasing concentrations,[1]; [2],tonically increased
same,number of ORs activated with increasing concentrations,[1]; [2],tonically increased
same,"z-scored expression of 10 immediate early genes (IEGs) for each OSN subtype, odor vs control",[1]; odor vs control (DPG) conditions,higher in the odor conditions
